This is an account of results in patent publication EP1953147A1, “HETEROCYCLIC COMPOUND AND MEDICINAL APPLICATION THEREOF” (priority 2005, dated 2007).

Bounds are passed on as bounds.

As a reminder, the IC50 is the midpoint of a concentration-inhibition curve.

The test system of this experiment is ΔG/SEAP/HCV E1E2. Kind of experiment: Effect of test substance on cell infection with HCV pseudotype virus (SEAP reporter assay in HepG2 cells). Type of experiment: cell-based. As to conditions: Hepatitis C virus.
Take `COc1cc(OC)cc(-c2nn(-c3cc(N4CC[C@H](O)C4)ccc3C(F)(F)F)c(=O)c3c2CCCN3CCO)c1` [Example 1-39, 5-(3,5-dimethoxy-phenyl)-1-(2-hydroxy-ethyl)-7-[5-((S)-3-hydroxy-pyrrolidin-1-yl)-2-trifluoromethylphenyl]-1,3,4,7-tetrahydro-2H-pyrido[2,3-d]pyridazin-8-one]: the half-inhibitory concentration (IC50) is under 100 nM. The same measure for `O=c1c2c(c(-c3ccccc3Cl)nn1-c1cc(N3CC[C@H](O)C3)ccc1C(F)(F)F)CCC2` [Example 96, 4-(2-chloro-phenyl)-2-[5-((S)-3-hydroxy-pyrrolidin-1-yl)-2-trifluoromethyl-phenyl]-2,5,6,7-tetrahydro-cyclopenta[d]pyridazin-1-one]: 100 to 10000 nM. Then `O=c1c2c(c(-c3ccc(F)cc3)nn1-c1cc(N3CC[C@H](O)C3)ccc1C(F)(F)F)CCC2` [Example 76, 4-(4-fluoro-phenyl)-2-[5-((S)-3-hydroxy-pyrrolidin-1-yl)-2-trifluoromethyl-phenyl]-2,5,6,7-tetrahydro-cyclopenta[d]pyridazin-1-one], with under 100 nM.

`CCCCNC(=O)CN1CCc2c(-c3cc(OC)cc(OC)c3)nn(-c3cc(N4CC[C@H](O)C4)ccc3C(F)(F)F)c(=O)c21` [Example 34, N-butyl-2-{4-(3,5-dimethoxy-phenyl)-6-[5-((S)-3-hydroxy-pyrrolidin-1-yl)-2-trifluoromethyl-phenyl]-7-oxo-2,3,6,7-tetrahydro-pyrrolo[2,3-d]pyridazin-1-yl}-acetamide] gave an IC50 of under 100 nM. As for `COc1cc(OC)cc(-c2nn(-c3cc(NC4CCCC4)ccc3C(F)(F)F)c(=O)c3c2CCC3)c1` [Example 146, 2-(5-cyclopentylamino-2-trifluoromethyl-phenyl)-4-(3,5-dimethoxy-phenyl)-2,5,6,7-tetrahydro-cyclopenta[d]pyridazin-1-one], the half-maximal inhibitory concentration (IC50) was under 100 nM. Then `O=c1c2c(c(-c3ccc(Br)cc3)nn1-c1cc(N3CC[C@H](O)C3)ccc1C(F)(F)F)CCC2` [Example 90, 4-(4-bromo-phenyl)-2-[5-((S)-3-hydroxy-pyrrolidin-1-yl)-2-trifluoromethyl-phenyl]-2,5,6,7-tetrahydro-cyclopenta[d]pyridazin-1-one], with under 100 nM; and `CNC(=O)CN1CCc2c(-c3cc(OC)cc(OC)c3)nn(-c3cc(N4CC[C@H](O)C4)ccc3C(F)(F)F)c(=O)c21` [Example 31, 2-{4-(3,5-dimethoxy-phenyl)-6-[5-((S)-3-hydroxy-pyrrolidin-1-yl)-2-trifluoromethyl-phenyl]-7-oxo-2,3,6,7-tetrahydro-pyrrolo[2,3-d]pyridazin-1-yl}-N-methyl-acetamide], with under 100 nM. Then `COc1cc(OC)cc(-c2nn(-c3cc(NCC(C)O)ccc3C(F)(F)F)c(=O)c3c2CCC3)c1` (stereo not shown) [Example 132, 4-(3,5-dimethoxy-phenyl)-2-[5-(2-hydroxy-propylamino)-2-trifluoromethyl-phenyl]-2,5,6,7-tetrahydro-cyclopenta[d]pyridazin-1-one], with under 100 nM; and `Cc1cccc(-c2nn(-c3cc(N4CC[C@H](O)C4)ccc3C(F)(F)F)c(=O)c3c2CCC3)c1` [Example 64, 2-[5-((S)-3-hydroxy-pyrrolidin-1-yl)-2-trifluoromethyl-phenyl]-4-m-tolyl-2,5,6,7-tetrahydro-cyclopenta[d]pyridazin-1-one], with under 100 nM. Then `COc1cc(OC)cc(-c2nn(-c3ccccc3Cl)c(=O)c3c2CCC3)c1` [Example 86, 2-(2-chloro-phenyl)-4-(3,5-dimethoxy-phenyl)-2,5,6,7-tetrahydro-cyclopenta[d]pyridazin-1-one], with 100 to 10000 nM. The compound `COc1cc(C)cc(-c2nn(-c3cc(-c4cccnn4)ccc3C(F)(F)F)c(=O)c3c2CCN3)c1` [Example 13, 4-(3-methoxy-5-methyl-phenyl)-6-(5-pyridazin-3-yl-2-trifluoromethyl-phenyl)-1,2,3,6-tetrahydro-pyrrolo[2,3-d]pyridazin-7-one] yielded a concentration for half-maximal inhibition (IC50) of under 100 nM. The same measure for `CCN(C)c1ccc(C(F)(F)F)c(-n2nc(-c3cc(OC)cc(OC)c3)c3c(c2=O)CCC3)c1` [Example 68, 4-(3,5-dimethoxy-phenyl)-2-[5-(ethyl-methylamino)-2-trifluoromethyl-phenyl]-2,5,6,7-tetrahydro-cyclopenta[d]pyridazin-1-one]: under 100 nM; for `O=c1c2c(c(C3=CCCC3)nn1-c1cc(N3CC[C@H](O)C3)ccc1C(F)(F)F)CCC2` [Example 1-18, 4-(cyclopent-1-enyl)-2-[5-((S)-3-hydroxy-pyrrolidin-1-yl)-2-trifluoromethyl-phenyl]-2,5,6,7-tetrahydro-cyclopenta[d]pyridazin-1-one]: 100 to 10000 nM.

As for `O=c1c2c(c(-c3ccsc3)nn1-c1cc(N3CC[C@H](O)C3)ccc1C(F)(F)F)CCC2` [Example 158, 2-[5-((S)-3-hydroxy-pyrrolidin-1-yl)-2-trifluoromethyl-phenyl]-4-thiophen-3-yl-2,5,6,7-tetrahydro-cyclopenta[d]pyridazin-1-one], the IC50 is 100 to 10000 nM. Then `COc1cc(O)cc(-c2nn(-c3cc(N4CC(CO)C4)ccc3C(F)(F)F)c(=O)c3c2CCN3CCO)c1` [Example 1-44, 1-(2-hydroxy-ethyl)-4-(3-hydroxy-5-methoxyphenyl)-6-[5-(3-hydroxymethyl-azetidin-1-yl)-2-trifluoromethyl-phenyl]-1,2,3,6-tetrahydro-pyrrolo[2,3-d]pyridazin-7-one], with under 100 nM; and `COc1cc(OC)cc(-c2nn(-c3cc(N4CCOCC4)ccc3C(F)(F)F)c(=O)c3c2CCC3)c1` [Example 70, 4-(3,5-dimethoxy-phenyl)-2-(5-morpholin-4-yl-2-trifluoromethyl-phenyl)-2,5,6,7-tetrahydro-cyclopenta[d]pyridazin-1-one], with under 100 nM. `COc1cc(OC)cc(-c2nn(-c3cc(NCCCC(=O)O)ccc3C(F)(F)F)c(=O)c3c2CCC3)c1` [Example 151, 4-{3-[4-(3,5-dimethoxy-phenyl)-1-oxo-1,5,6,7-tetrahydro-cyclopenta[d]pyridazin-2-yl]-4-trifluoromethyl-phenylamino}-butyric acid] yielded an IC50 of under 100 nM.

`COc1cc(OC)cc(-c2nn(-c3ccccc3C(F)(F)F)c(=O)c3c2CCC3)c1` [Example 107, 4-(3,5-dimethoxy-phenyl)-2-(2-trifluoromethylphenyl)-2,5,6,7-tetrahydro-cyclopenta[d]pyridazin-1-one]: the 50% inhibitory concentration (IC50) was 100 to 10000 nM. Then `COc1cc(OC)cc(-c2nn(-c3cc(NC(=O)CO)ccc3C(F)(F)F)c(=O)c3c2CCC3)c1` [Example 83, N-{3-[4-(3,5-dimethoxy-phenyl)-1-oxo-1,5,6,7-tetrahydro-cyclopenta[d]pyridazin-2-yl]-4-trifluoromethyl-phenyl}-2-hydroxy-acetamide], with under 100 nM; and `COc1cc(OC)cc(-c2nn(-c3cc(N4CC[C@H](O)C4)ccc3C(F)(F)F)c(=O)c3c2CCN3CC(=O)O)c1` [Example 27, {4-(3,5-dimethoxy-phenyl)-6-[5-((S)-3-hydroxy-pyrrolidin-1-yl)-2-trifluoromethyl-phenyl]-7-oxo-2,3,6,7-tetrahydro-pyrrolo[2,3-d]pyridazin-1-yl}-acetic acid], with under 100 nM; and `CCCCCCNC(=O)CN1CCc2c(-c3cc(OC)cc(OC)c3)nn(-c3cc(N4CC[C@H](O)C4)ccc3C(F)(F)F)c(=O)c21` [Example 35, 2-{4-(3,5-dimethoxy-phenyl)-6-[5-((S)-3-hydroxy-pyrrolidin-1-yl)-2-trifluoromethyl-phenyl]-7-oxo-2,3,6,7-tetrahydro-pyrrolo[2,3-d]pyridazin-1-yl}-N-hexyl-acetamide], with under 100 nM. Then `CCCN(C)c1ccc(C(F)(F)F)c(-n2nc(-c3cc(OC)cc(OC)c3)c3c(c2=O)CCC3)c1` [Example 101, 4-(3,5-dimethoxy-phenyl)-2-[5-(methyl-propylamino)-2-trifluoromethyl-phenyl]-2,5,6,7-tetrahydro-cyclopenta[d]pyridazin-1-one], with 100 to 10000 nM; and `CNC(=O)CCCNc1ccc(C(F)(F)F)c(-n2nc(-c3cc(OC)cc(OC)c3)c3c(c2=O)CCC3)c1` [Example 153, 4-{3-[4-(3,5-dimethoxy-phenyl)-1-oxo-1,5,6,7-tetrahydro-cyclopenta[d]pyridazin-2-yl]-4-trifluoromethyl-phenylamino}-N-methyl-butyramide], with under 100 nM; and `O=c1c2c(c(-c3ccncc3)nn1-c1cc(N3CC[C@H](O)C3)ccc1C(F)(F)F)CCC2` [Example 95, 2-[5-((S)-3-hydroxy-pyrrolidin-1-yl)-2-trifluoromethyl-phenyl]-4-pyridin-4-yl-2,5,6,7-tetrahydro-cyclopenta[d]pyridazin-1-one], with 100 to 10000 nM. With `COc1cc(OC)cc(-c2nn(-c3cc(NCCCN(C)C)ccc3C(F)(F)F)c(=O)c3c2CCC3)c1` [Example 128, 4-(3,5-dimethoxy-phenyl)-2-[5-(3-dimethylamino-propylamino)-2-trifluoromethyl-phenyl]-2,5,6,7-tetrahydro-cyclopenta[d]pyridazin-1-one], the half-maximal inhibitory concentration (IC50) was under 100 nM. Turning to `COC(=O)CNc1ccc(C(F)(F)F)c(-n2nc(-c3cc(OC)cc(OC)c3)c3c(c2=O)CCC3)c1` [Example 126, {3-[4-(3,5-dimethoxy-phenyl)-1-oxo-1,5,6,7-tetrahydro-cyclopenta[d]pyridazin-2-yl]-4-trifluoromethyl-phenylamino}-acetic acid methyl ester], the IC50 was under 100 nM. The same measure for `Cc1cc(-c2cnco2)cc(-c2nn(-c3cc(-c4cccnn4)ccc3C(F)(F)F)c(=O)c3c2CCC3)c1` [Example 3, 4-(3-methyl-5-oxazol-5-yl-phenyl)-2-(5-pyridazin-3-yl-2-trifluoromethyl-phenyl)-2,5,6,7-tetrahydro-cyclopenta[d]pyridazin-1-one]: under 100 nM; for `COc1cc(OC)cc(-c2nn(-c3cc(Cl)ccc3C(F)(F)F)c(=O)c3c2CCN3)c1` [Example 51, 6-(5-chloro-2-trifluoromethyl-phenyl)-4-(3,5-dimethoxy-phenyl)-1,2,3,6-tetrahydro-pyrrolo[2,3-d]pyridazin-7-one]: 100 to 10000 nM.
